# Experimental data from patent publication US20230271949A1, “GLP-1R MODULATING COMPOUNDS” (ASCLETIS BIOSCIENCE CO., LTD., priority 2022, published 2023).
# Molecular target: GLP-1R (Homo sapiens, UniProt P43220)
# Test: GLP-1R agonist cAMP stimulation assay (HTRF cAMP)
# Assay type: cell-based
# Conditions: HEK293 cell line expressing GLP-1 target; HTRF cAMP agonist mode, 30 min at RT
# Description: cAMP Detection Kit, Cisbio (Cat #62AM4PEJ)
# The cell line was constructed by WuXi.
# 2. Methods • a) The compound source plate preparation: • The reference 7-37 was diluted from 500 nM, 4-fold, 10 points in DMSO using Bravo. The compounds were diluted from […], 3-fold, 10 points in DMSO using Bravo. • b) Transfer of compounds: • 1) Use Echo transfer 100 nL cpd to the OptiPlate-384 plate. • 2) Spin the plates at 1000 rpm for 5 sec. • c) Cell suspension preparation: • 1) Thaw 1 vial of GLP-1 cells rapidly in 37° C. water bath. • 2) Transfer cell suspension into 10 ml of HBSS in a 15 ml conical tube. • 3) Centrifuge cells at 1000 rpm for 5 min at room temperature to pellet cells • 4) Gently aspirate supernatant being careful not to aspirate cells. • 5) Flick pellet to loose cells and re-suspend the cell pellet in 10 ml HBSS. Use a sterile pipette to pipette up and down to dislodge clumps. • 6) Count cells for concentration and to determine cell viability on Vi-cell. • 7) Re-suspend the GLP-1 cells in assay buffer at a concentration of 1.0×E5/mL cells. • 8) Transfer 10 μL GLP-1 cells to OptiPlate-384 plate. • d) HTRF cAMP Assay for agonist: • 1) Incubate the plate at RT for 30 min before adding the detection reagent. • 2) Add 10 μL each of detection reagent using Electric Multiple Channel Pipette. • 3) Cover the 384 plate with TopSeal-A film and incubate for 60 minutes at room temperature. • Remove the TopSeal-A, read on EnVision.
# Create a new log (Inhibitor) vs response—Variable slope mode in Prism5.0 software, substitute the standard curve concentration (x) and its corresponding 665/615 data (y) into the model, convert the standard curve concentration (abscissa) by x=log(x), and make the standard curve through the converted xy.
# Transform the data of 665/615 in the whole plate into a column of data, substitute it into y in the table of standard curve concentration (x) and 665/615 data (y), copy the x (interpolatedx) corresponding to automatic conversion by the software into a table, convert it into cAMP level by the formula x=10^(x), and reset the data into 384 distribution.
# % Activity=(cAMP level−LC)/(HC−LC)*100% • Z factor: 1-3*(STD_HC+[…])/(HC-LC) • Assay Window: HC/LC • LC: The average cAMP level of adding DMSO wells • HC: The average cAMP level of adding the top concentration of reference compounds wells.
# Create a new […] in Prism5.0 software, substitute the sample concentration (x) and its corresponding % Activity data (y) into the model, convert the standard curve concentration (abscissa) to x=log(x), and make the sample curve through the converted xy.
# Sequence of GLP-1R (P43220 24-463): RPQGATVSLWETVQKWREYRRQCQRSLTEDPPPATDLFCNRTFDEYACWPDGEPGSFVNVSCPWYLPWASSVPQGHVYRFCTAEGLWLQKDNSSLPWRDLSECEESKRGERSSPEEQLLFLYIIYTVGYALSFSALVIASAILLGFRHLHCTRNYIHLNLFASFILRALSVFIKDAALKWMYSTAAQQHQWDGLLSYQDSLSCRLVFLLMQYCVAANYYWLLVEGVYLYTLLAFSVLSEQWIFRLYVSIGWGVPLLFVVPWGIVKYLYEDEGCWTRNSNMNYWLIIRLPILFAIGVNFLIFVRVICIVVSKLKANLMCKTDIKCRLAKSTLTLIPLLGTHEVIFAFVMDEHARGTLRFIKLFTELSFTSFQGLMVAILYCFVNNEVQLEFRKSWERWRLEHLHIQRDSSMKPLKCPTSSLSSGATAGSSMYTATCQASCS
row,EC50,Compound
1,0.35 nM,COCCn1c(C2CC23CCN(c2cccc(OCc4ccc(C#N)cc4F)n2)CC3)nc2cc(C(=O)Nc3ccc4[nH]nc(C)c4c3)ccc21 (stereo not drawn) [Compound 7]
2,1.33 nM,COCCn1c(C2CC23CCN(c2cccc(OCc4ccc(C#N)cc4F)n2)CC3)nc2ccc(C(=O)Nc3ccc4[nH]nc(C)c4c3)cc21 (stereo not drawn) [Compound 8]
3,2980 nM,COCCn1c(Cc2ccc(-c3cccc(OCc4ccc(C#N)cc4F)n3)cc2)nc2cc(C(=O)NCCc3ccc(N)cc3)ccc21 [Compound 9]
4,189 nM,COCCn1c(Cc2ccc(-c3cccc(OCc4ccc(C#N)cc4F)n3)cc2)nc2cc(NC(=O)CCc3ccccc3O)ccc21 [Compound 13]
5,411 nM,COCCn1c(CN2CCC(c3cccc(OCc4ccc(Cl)cc4F)n3)CC2)nc2cc(C(=O)NCCc3ccccc3O)ccc21 [Compound 18]
6,176 nM,COCCn1c(CN2CCC(c3cccc(OCc4ccc(Cl)cc4F)n3)CC2)nc2cc(C(=O)NCCc3cccc(O)c3)ccc21 [Compound 19]
7,> 10000 nM,COCCn1c(CN2CCC(c3cccc(OCc4ccc(Cl)cc4F)n3)CC2)nc2cc(C(=O)NCCc3ccc(C(F)(F)F)cc3)ccc21 [Compound 23]
8,> 10000 nM,COCCn1c(CN2CCC(c3cccc(OCc4ccc(Cl)cc4F)n3)CC2)nc2cc(C(=O)N3Cc4[nH]nc(N)c4C3)ccc21 [Compound 26]
9,> 10000 nM,COCCn1c(Cc2ccc(-c3cccc(OCc4ccc(C#N)cc4F)n3)cc2-c2nccn2C)nc2cc(C(=O)NCCc3ccc(S(N)(=O)=O)cc3)ccc21 [Compound 29]
10,> 10000 nM,COCCn1c(CN2CCC(c3cccc(OCc4ccc(Cl)cc4F)n3)CC2)nc2cc(C(=O)NCc3ccccc3O)ccc21 [Compound 35]
11,> 10000 nM,COCCn1c(CN2CCC(c3cccc(OCc4ccc(Cl)cc4F)n3)CC2)nc2cc(C(=O)NCc3ccc(O)c(C(=O)OC)c3)ccc21 [Compound 36]
12,106 nM,COCCn1c(CN2CCC(c3cccc(OCc4ccc(Cl)cc4F)n3)CC2)nc2cc(C(=O)NCc3ccc(O)c(C(=O)O)c3)ccc21 [Compound 37]
13,286 nM,CNS(=O)(=O)Cc1ccc2[nH]cc(CCNC(=O)c3ccc4c(c3)nc(CN3CCC(c5cccc(OCc6ccc(Cl)cc6F)n5)CC3)n4CCOC)c2c1 [Compound 39]
14,376 nM,COCCn1c(CN2CCC(c3cccc(OCc4ccc(Cl)cc4F)n3)CC2)nc2cc(C(=O)NCC(CC(=O)O)c3ccccc3)ccc21 (stereo not drawn) [Compound 41]
15,9.6 nM,COC(=O)[C@@H]1C[C@H](O)CN1C(=O)CNC(=O)c1ccc2c(c1)nc(CN1CCC(c3cccc(OCc4ccc(C#N)cc4F)n3)CC1)n2C[C@@H]1CCO1 [Compound 47]

# The remaining lines, values behind:
row,Compound,EC50
1,"COCCn1c(Cc2ccc(-c3cccc(OCc4ccc(C#N)cc4F)n3)cc2)nc2cc(C(=O)NCCc3ccc(O)cc3)ccc21 [Compound 1, 2-(4-(6-((4-cyano-2-fluorobenzyl)oxy)pyridin-2-yl)benzyl)-N-(4-hydroxyphenethyl)-1-(2-methoxyethyl)-1H-benzo[d]imidazole-5-carboxamide]",4150 nM
2,"Cc1n[nH]c2ccc(C(=O)Nc3ccc4c(c3)nc(CN3CC=C(c5cccc(OCc6ccc(Cl)cc6F)n5)CC3)n4C[C@@H]3CCO3)cc12 [Compound 4, (S)—N-(2-((6-((4-chloro-2-fluorobenzyl)oxy)-3′,6′-dihydro-[2,4′-bipyridin]-1′(2′H)-yl)methyl)-1-(oxetan-2-ylmethyl)-1H-benzo[d]imidazol-5-yl)-3-methyl-1H-indazole-5-carboxamide]",0.14 nM
3,Cc1n[nH]c2ccc(NC(=O)c3ccc4c(c3)nc(CN3CC=C(c5cccc6c5O[C@](C)(c5ccc(Cl)cc5F)O6)CC3)n4C[C@@H]3CCO3)cc12 [Compound 6],1.21 nM
4,COCCn1c(Cc2ccc(-c3cccc(OCc4ccc(C#N)cc4F)n3)cc2)nc2cc(C(=O)NCCc3ccc(C(=O)NCCc4ccc(C(=O)O)cc4)cc3)ccc21 [Compound 10],993 nM
5,COCCn1c(Cc2ccc(-c3cccc(OCc4ccc(C#N)cc4F)n3)cc2)nc2cc(C(=O)NCC(O)c3ccc(O)cc3)ccc21 (stereo not drawn) [Compound 11],567 nM
6,COCCn1c(Cc2ccc(-c3cccc(OCc4ccc(C#N)cc4F)n3)cc2)nc2cc(C(=O)NCCc3ccc(C(=O)O)cc3)ccc21 [Compound 12],122 nM
7,COCCn1c(CN2CCC(c3cccc(OCc4ccc(Cl)cc4F)n3)CC2)nc2cc(C(=O)N[C@@H]3CCc4nc(N)sc4C3)ccc21 [Compound 14],447 nM
8,O=C(NCCc1ccc(O)cc1)c1ccc2c(c1)nc(CN1CCC(c3cccc(OCc4ccc(Cl)cc4F)n3)CC1)n2C[C@@H]1CCO1 [Compound 15],25.6 nM
9,COCCn1c(CN2CCC(c3cccc(OCc4ccc(Cl)cc4F)n3)CC2)nc2cc(C(=O)NCCCn3ccnc3)ccc21 [Compound 16],146 nM
10,COCCn1c(CN2CCC(c3cccc(OCc4ccc(Cl)cc4F)n3)CC2)nc2cc(C(=O)NCCc3c[nH]c4ccc(O)cc34)ccc21 [Compound 17],404 nM
11,COCCn1c(CN2CCC(c3cccc(OCc4ccc(Cl)cc4F)n3)CC2)nc2cc(C(=O)NCCCc3ccc(OC)cc3)ccc21 [Compound 20],3240 nM
12,COCCn1c(CN2CCC(c3cccc(OCc4ccc(Cl)cc4F)n3)CC2)nc2cc(C(=O)NCc3ccc4[nH]ccc4c3)ccc21 [Compound 21],160 nM
13,COCCn1c(CN2CCC(c3cccc(OCc4ccc(Cl)cc4F)n3)CC2)nc2cc(C(=O)NCCc3nc4ccccc4[nH]3)ccc21 [Compound 22],1370 nM
14,O=C(NCc1ccc(O)cc1)c1ccc2c(c1)nc(CN1CCC(c3cccc(OCc4ccc(Cl)cc4F)n3)CC1)n2C[C@@H]1CCO1 [Compound 24],90.1 nM
15,COCCn1c(CN2CCC(c3cccc(OCc4ccc(Cl)cc4F)n3)CC2)nc2cc(C(=O)NCCCc3ccc(O)cc3)ccc21 [Compound 25],756 nM
16,COCCn1c(CN2CCC(c3cccc(OCc4ccc(Cl)cc4F)n3)CC2)nc2cc(C(=O)NCc3ccc(NC(C)=O)cc3)ccc21 [Compound 27],129 nM
17,COCCn1c(CN2CCC(c3cccc(OCc4ccc(Cl)cc4F)n3)CC2)nc2cc(C(=O)NCc3ccc(O)c(OC)c3)ccc21 [Compound 28],75.7 nM
18,COCCn1c(CN2CCC(c3cccc(OCc4ccc(Cl)cc4F)n3)CC2)nc2cc(C(=O)NCc3ccc(C#N)cc3)ccc21 [Compound 30],1380 nM
19,COCCn1c(CN2CCC(c3cccc(OCc4ccc(Cl)cc4F)n3)CC2)nc2cc(C(=O)NCc3ccc(O)c(F)c3)ccc21 [Compound 31],37.2 nM
20,COCCn1c(CN2CCC(c3cccc(OCc4ccc(Cl)cc4F)n3)CC2)nc2cc(C(=O)NCc3cccc(O)c3)ccc21 [Compound 32],112 nM
21,COCCn1c(CN2CCC(c3cccc(OCc4ccc(Cl)cc4F)n3)CC2)nc2cc(C(=O)NCc3ccc(O)c(O)c3)ccc21 [Compound 33],61 nM
22,COCCn1c(CN2CCC(c3cccc(OCc4ccc(Cl)cc4F)n3)CC2)nc2cc(C(=O)NCc3ccc(O)nc3)ccc21 [Compound 34],90.1 nM
23,COCCn1c(CN2CCC(c3cccc(OCc4ccc(Cl)cc4F)n3)CC2)nc2cc(C(=O)NCc3ccc4[nH]c(=O)[nH]c4c3)ccc21 [Compound 38],17.7 nM
24,COCCn1c(CN2CCC(c3cccc(OCc4ccc(Cl)cc4F)n3)CC2)nc2cc(C(=O)N[C@@H](C)c3ccc(O)cc3)ccc21 [Compound 40],36.5 nM
25,COCCn1c(CN2CCC(c3cccc(OCc4ccc(Cl)cc4F)n3)CC2)nc2cc(C(=O)NCC(=O)c3ccc(O)c(O)c3)ccc21 [Compound 42],> 10000 nM
26,COCCn1c(CN2CCC(c3cccc(OCc4ccc(Cl)cc4F)n3)CC2)nc2cc(C(=O)NC3Cc4cc(C)c(O)cc4C3)ccc21 (stereo not drawn) [Compound 43],256 nM
27,N#Cc1ccc(COc2cccc(C3CCN(Cc4nc5cc(C(=O)NCC(=O)N6C[C@@H](F)C[C@H]6C(=O)O)ccc5n4C[C@@H]4CCO4)CC3)n2)c(F)c1 [Compound 44],4.36 nM
28,O=C(NCC(=O)N1C[C@@H](O)C[C@H]1C(=O)O)c1ccc2c(c1)nc(CN1CCC(c3cccc(OCc4ccc(Cl)cc4F)n3)CC1)n2C[C@@H]1CCO1 [Compound 45],1.39 nM
29,O=C(NCC(=O)N1C[C@H](O)C[C@@H]1C(=O)O)c1ccc2c(c1)nc(CN1CCC(c3cccc(OCc4ccc(Cl)cc4F)n3)CC1)n2C[C@@H]1CCO1 [Compound 46],42.4 nM
30,O=C(NCC(=O)N1C[C@@H](F)C[C@H]1C(=O)O)c1ccc2c(c1)nc(CN1CCC(c3cccc(OCc4ccc(Cl)cn4)n3)CC1)n2C[C@@H]1CCO1 [Compound 48],4.36 nM
